Source: patent publication US20070202134A1, “Muc1 Antagonist Enhancement of Death Receptor Ligand-Induced Apoptosis” (priority 2004, published 2007)

Key:
Type in all cases: cell-based, Human
HCT116/vector cells [1] = test: Apoptosis by analysis of sub-G1 DNA, HCT116/vector cells
Description: Methods. Apoptotic cells were quantified by analysis of sub-G1 DNA and TUNEL staining. To assess sub-G1 DNA content, cells were harvested, washed with PBS, fixed with 80% ethanol, and incubated in PBS containing 20 ng/ml RNase (Roche) for 60 min at 37° C. Cells were then stained with […] propidium iodide (Sigma) for 30 min at room temperature in the dark. DNA content was analyzed by flow cytometry (EPICS XL-MCL, Coulter Corp.). Apoptotic cells with DNA fragmentation were detected by staining with the In Situ cell death detection kit (TUNEL; Roche Applied Science) and visualized by confocal microscopy (ZEISS LSM510). After staining, cells were analyzed by flow cytometry. Other experimental procedures and methods were as described in Example 1.

MUC1 C-ter [2] = test: Expression of MUC1 C-ter after CHX; details: CHX treatment
Description: Immunoblot analysis. Lysates were prepared from subconfluent cells as described (Li et al., 2001a). Equal amounts of protein were separated by SDS-PAGE and transferred to nitrocellulose membranes. […] The immunocomplexes were detected with horseradish peroxidase-conjugated secondary antibodies and enhanced chemiluminescence (ECL, Amersham Biosciences, Piscataway, N.J.). Intensity of the signals was determined by densitometric scanning.
Methods. Apoptotic cells were quantified by analysis of sub-G1 DNA and TUNEL staining. […] DNA content was analyzed by flow cytometry (EPICS XL-MCL, Coulter Corp.). Apoptotic cells with DNA fragmentation were detected by staining with the In Situ cell death detection kit (TUNEL; Roche Applied Science) and visualized by confocal microscopy (ZEISS LSM510). After staining, cells were analyzed by flow cytometry. […]

HCT116/MUC1(Y46F) cells = test: Cell death after CDDP treatment, HCT116/MUC1(Y46F) cells; details: CDDP for 72 h
Description: (§1) Cell culture. Human HCT116 colon carcinoma cells (ATCC, Manassas, Va.) were cultured in Dulbecco's modified Eagle's medium/F12 with 10% heat-inactivated fetal bovine serum, 100 units/ml penicillin, […] streptomycin and 2 mM L-glutamine. Cells were treated with EGF (10 ng/ml; Calbiochem-Novabiochem, San Diego, Calif.), HRG (20 ng/ml; Calbiochem-Novabiochem), cisplatin (CDDP; Sigma), etoposide (Sigma), rhTNF-a (Promega, Madison, Wis.), CHX (Sigma) or rhTRAIL (100 ng/ml; Calbiochem-Novabiochem).
(§2) Methods. Experimental procedures and methods were as described in Example 1.

cytochrome c = test: Release of mitochondrial cytochrome c to the cytosol (immunoblot), HCT116/vector cells; details: HCT116/vector cells treated with CDDP
Description: as §1
(§3) Immunoblot analysis. Lysates were prepared from subconfluent cells as described (Li et al., 2001a). Equal amounts of protein were separated by SDS-PAGE and transferred to nitrocellulose membranes. […] The immunocomplexes were detected with horseradish peroxidase-conjugated secondary antibodies and enhanced chemiluminescence (ECL, Amersham Biosciences, Piscataway, N.J.). Intensity of the signals was determined by densitometric scanning. […]

HCT116/vector cells [3] = test: Cell death after CDDP treatment, HCT116/vector cells; details: CDDP for 72 h
Description: as §1, §2

HCT116/MUC1 cells = test: Cell death after CDDP treatment, HCT116/MUC1 cells; details: CDDP for 72 h, cessation of cell growth
Description: as §1, §2

MUC1 C-ter [4] = test: Mitochondrial localization of MUC1 C-ter in HCT116/MUC1 cells (immunoblot of mitochondrial fractions)
Description: as §1, §3

MUC1(Y46F) C-ter = test: Mitochondrial localization of MUC1(Y46F) C-ter in HCT116/MUC1(Y46F) cells (immunoblot of mitochondrial fractions)
Description: as §1, §3

TNF-α
induction of apoptosis (HCT116/vector cells [1]; 20 ng/ml TNF-α in the presence of 10 ng/ml cycloheximide (CHX), 12 hr): associated with induction of HCT116/vector cell apoptosis
induction of apoptosis (HCT116/vector cells [1]; TNF-α alone): failed to induce apoptosis

C[C@@H]1C[C@@H]([C@H](O)CC2CC(=O)NC(=O)C2)C(=O)[C@@H](C)C1 [CHX, cycloheximide]
effect on expression of MUC1 C-ter (MUC1 C-ter [2]): no apparent effect

[NH2][Pt]([NH2])([Cl])[Cl] [CDDP, cisplatin]
cell death (HCT116/MUC1(Y46F) cells): > 90%
apoptosis (sub-G1 DNA) (HCT116/vector cells [1]; 100 μM CDDP for 24 h): approximately 40%
levels of cytosolic cytochrome c (cytochrome c): increased levels of cytosolic cytochrome c
cell death (HCT116/vector cells [3]): > 90%
cell death (HCT116/MUC1 cells): < 30%

heregulin [HRG]
increase in localization of MUC1 C-ter to mitochondria (MUC1 C-ter [4]; HRG 20 ng/ml, 0.5 h, persisted through 3 h): 2.3 fold
effect on mitochondrial localization of MUC1(Y46F) C-ter (MUC1(Y46F) C-ter; HRG 20 ng/ml): little effect

EGF: EGF (10 ng/ml; Calbiochem-Novabiochem) (NSDSECPLSHDGYCLHDGVCMYIEALDKYACNCVVGYIGERCQYRDLKWWELR; Epidermal growth factor; UniProt P01133 971-1023, looked up)
effect on mitochondrial targeting of MUC1 C-ter (MUC1 C-ter [4]; EGF 10 ng/ml): little effect
effect on mitochondrial targeting of MUC1 C-ter (MUC1(Y46F) C-ter; EGF 10 ng/ml): little effect
